From ChEMBL document CHEMBL1201862, “PubChem BioAssay data set” (2004)
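Results reflect a 48-hour exposure of cells in 96-well plates to compound at five concentrations. GI50 marks 50% less growth.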 Calls of active or inactive are those of the source. No stated cut-off is given here; in the data, active = GI50 up to about 1.1 µM and inactive = higher.

Experiments:
Experiment in all cases: inhibition of tumour cell growth, NCI panel, 48 h
NCI-H460 = tested on: NCI-H460
SR = tested on: SR
DU-145 = tested on: DU-145
OVCAR-4 = tested on: OVCAR-4
HCC 2998 = tested on: HCC 2998
U-251 = tested on: U-251
SK-MEL-5 = tested on: SK-MEL-5
OVCAR-3 = tested on: OVCAR-3
MDA-MB-231 = tested on: MDA-MB-231
SNB-75 = tested on: SNB-75
K562 = tested on: K562
HCT-116 = tested on: HCT-116
MOLT-4 = tested on: MOLT-4
SW-620 = tested on: SW-620
SF-268 = tested on: SF-268
RPMI-8226 = tested on: RPMI-8226
HOP-92 = tested on: HOP-92
SF-295 = tested on: SF-295
IGROV-1 = tested on: IGROV-1
HL-60 = tested on: HL-60

| Compound | GI50 (NCI-H460) | GI50 (SR) | GI50 (DU-145) | GI50 (OVCAR-4) | GI50 (HCC 2998) | GI50 (U-251) | GI50 (SK-MEL-5) | GI50 (OVCAR-3) | GI50 (MDA-MB-231) | GI50 (SNB-75) | GI50 (K562) | GI50 (HCT-116) | GI50 (MOLT-4) | GI50 (SW-620) | GI50 (SF-268) | GI50 (RPMI-8226) | GI50 (HOP-92) | GI50 (SF-295) | GI50 (IGROV-1) | GI50 (HL-60) |
| --- | --- | --- | --- | --- | --- | --- | --- | --- | --- | --- | --- | --- | --- | --- | --- | --- | --- | --- | --- | --- |
| CCOP(=O)(OCC)C1=C(c2ccccc2)OC(N)=C(C#N)C1c1ccc(Cl)cc1 (stereo not given) | > 100 µM (inactive) | > 100 µM (inactive) | > 100 µM (inactive) | > 100 µM (inactive) | 79.3 µM (inactive) | > 100 µM (inactive) | > 100 µM (inactive) | > 100 µM (inactive) | > 100 µM (inactive) | > 100 µM (inactive) | > 100 µM (inactive) | > 100 µM (inactive) | > 100 µM (inactive) | > 100 µM (inactive) | 38.1 µM (inactive) | > 100 µM (inactive) | > 100 µM (inactive) | > 100 µM (inactive) | > 100 µM (inactive) | > 100 µM (inactive) |
| O=C(O)COc1cc(-c2ccccc2)nc2ccccc12 | 48 µM (inactive) | 63 µM (inactive) | > 100 µM (inactive) | 77.1 µM (inactive) | > 100 µM (inactive) | 71.9 µM (inactive) | 33.9 µM (inactive) | > 100 µM (inactive) | > 100 µM (inactive) | 41.5 µM (inactive) | 36.8 µM (inactive) | 36.8 µM (inactive) | 47.2 µM (inactive) | 59.7 µM (inactive) | > 100 µM (inactive) | 86.7 µM (inactive) | > 100 µM (inactive) | 44.4 µM (inactive) | 56.4 µM (inactive) | 41.2 µM (inactive) |
| CN1C(=O)CC2(C)c3cc(O)ccc3N(C)C12 (stereo not given) | 50.9 µM (inactive) | 18.5 µM (inactive) | > 40.4 µM (inactive) | 5.45 µM (inactive) | > 100 µM (inactive) | 19.2 µM (inactive) | 22.5 µM (inactive) | 19.6 µM (inactive) | 19.5 µM (inactive) | 30.8 µM (inactive) | 18.5 µM (inactive) | 19.9 µM (inactive) | 19.3 µM (inactive) | 20 µM (inactive) | 27 µM (inactive) | 31 µM (inactive) | 56.9 µM (inactive) | 29.8 µM (inactive) | 46.6 µM (inactive) | 21.2 µM (inactive) |
| CC[C@@]1(O)C(=O)OCc2c1cc1n(c2=O)Cc2cc3cc4c(cc3nc2-1)OCO4 | < 0.001 µM (active) | < 0.001 µM (active) | < 0.001 µM (active) | 0.0507 µM (active) | 0.0238 µM (active) | < 0.001 µM (active) | 0.00169 µM (active) | 0.0551 µM (active) | 0.357 µM (active) | 0.00148 µM (active) | 0.00304 µM (active) | 0.00167 µM (active) | < 0.001 µM (active) | 0.0032 µM (active) | < 0.001 µM (active) | 0.0281 µM (active) | 0.0026 µM (active) | < 0.001 µM (active) | 0.00948 µM (active) | 0.00133 µM (active) |
| COc1ccccc1CCN1CCN(CCCc2ccccc2)CC1 | 54.3 µM (inactive) | 32.7 µM (inactive) | > 100 µM (inactive) | 89.7 µM (inactive) | 47.3 µM (inactive) | > 100 µM (inactive) | 22.1 µM (inactive) | > 100 µM (inactive) | > 100 µM (inactive) | > 100 µM (inactive) | 34.5 µM (inactive) | 33 µM (inactive) | 89.7 µM (inactive) | > 100 µM (inactive) | > 100 µM (inactive) | 39.4 µM (inactive) | 0.524 µM (active) | 52.5 µM (inactive) | > 100 µM (inactive) | 65.9 µM (inactive) |
| CCC1(O)CC(OC2CC(N(C)C)C(OC3CC(O)C(OC4CCC(=O)C(C)O4)C(C)O3)C(C)O2)c2c(O)c3c(c(O)c2C1C(=O)OC)C(=O)c1cccc(O)c1C3=O (stereo not given) | 0.000434 µM (active) | 0.00897 µM (active) | 0.00689 µM (active) | 0.01 µM (active) | 0.0172 µM (active) | 0.0028 µM (active) | 0.00405 µM (active) | 0.0155 µM (active) | 0.0181 µM (active) | 0.00881 µM (active) | 0.000274 µM (active) | 0.000396 µM (active) | 0.00154 µM (active) | 0.00171 µM (active) | 0.0316 µM (active) | 0.00181 µM (active) | 0.0344 µM (active) | 0.00219 µM (active) | 0.00178 µM (active) | 0.00586 µM (active) |
| O=C(O)c1cc2ccccc2c(/N=N\c2cc(C(F)(F)F)ccc2Cl)c1O | 38.5 µM (inactive) | 24.8 µM (inactive) | 74.1 µM (inactive) | 86.9 µM (inactive) | > 100 µM (inactive) | 27.5 µM (inactive) | 25.5 µM (inactive) | 22.5 µM (inactive) | 18.3 µM (inactive) | 0.0169 µM (active) | 27 µM (inactive) | 53.8 µM (inactive) | 27.4 µM (inactive) | > 100 µM (inactive) | > 100 µM (inactive) | 17.8 µM (inactive) | 53.8 µM (inactive) | 47.6 µM (inactive) | 95.9 µM (inactive) | 21.8 µM (inactive) |
